Holding throughout (type): cell-based
One assay concerns NFκB. In words: NFκB agonist assay in A549 SPAP cells.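 For average maximum asymptote in the NFkB assay: maximum inhibition of the TNFα-induced NFκB-driven signal.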 To be noted: Homo sapiens; for Emax: A549, A549 SPAP cells, >85% = full agonist, ≧20% = partial or full agonist, read-out: average maximum asymptote in the NFkB assay; for IC50: A549 SPAP cells, TNFα 3.2 ng/ml, read-out: pIC50 for the NFkB assay (converted). In short, it runs like this:
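A549 cells stably carrying an ELAM/NFκB-driven SPAP reporter were pre-incubated 1 h at 37° C with compound, then stimulated with TNFα (3.2 ng/ml final) for 15 h. SPAP activity read colorimetrically with pNPP at 405 nm after ~1 h; pIC50 estimated from dose-response curves.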

Another assay relates to MMTV promoter. In words: MMTV agonist assay in A549 MMTV cells. The following applies: Homo sapiens, A549, 6 h, >85% = full agonist, >20% and <85% = partial or efficacy selective agonist, read-out: average maximum asymptote in the MMTV agonist assay. From the text: Human lung carcinoma A549 cell line (ECACC No. 86012804) has been stably transfected in house with a plasmid containing a renilla luciferase reporter with an MMTV promoter. Stimulation of the cell line with GR agonists results in intracellular signal transduction and ultimately translocation of GR into the nucleus. This activates the inserted DNA sequence resulting in transcription of the integrated luciferase gene, which is quantified using a light emission. The stably transfected cell line was grown as a monolayer in DMEM supplemented with FCS-HI (10%), Non-essential amino acids (1%), L-Glutamine (2 mM), Pen/Strep (1%) and Geneticin (50 mg/ml).
A 90% confluent T175 flask of A549 MMTV cells was harvested by centrifugation for 5 min at 200 g, resuspended in assay buffer (DMEM supplemented with 10% FCS 2×HI, 2 mM Glutamax, Non essential amino acids and 25 mM HEPES) and diluted to 0.1×10^6/ml. 70 μl of cell solution was dispensed to each well of white Nunc 384-well plates, containing compound at the required concentration. Plates were incubated for 6 h at 37° C., 95% humidity, 5% CO2. Plates were equilibrated to room temperature for 1 h prior to the addition of 10 μl of Renilla substrate to each well of assay plates. The plates were covered to protect the reagents from light, and then incubated at room temperature for approximately 15 mins before reading them on a Viewlux. Dose response curves were constructed from which pEC50 and maximum asymptote values were estimated.

The target in the next assay is T1, progesterone receptor (Homo sapiens, UniProt P06401).
T1 construct: expressed in transfected cells; host or cells: CV-1 cells transduced with PRb-BacMam and MMTV-BacMam
T1 sequence (P06401 1-933): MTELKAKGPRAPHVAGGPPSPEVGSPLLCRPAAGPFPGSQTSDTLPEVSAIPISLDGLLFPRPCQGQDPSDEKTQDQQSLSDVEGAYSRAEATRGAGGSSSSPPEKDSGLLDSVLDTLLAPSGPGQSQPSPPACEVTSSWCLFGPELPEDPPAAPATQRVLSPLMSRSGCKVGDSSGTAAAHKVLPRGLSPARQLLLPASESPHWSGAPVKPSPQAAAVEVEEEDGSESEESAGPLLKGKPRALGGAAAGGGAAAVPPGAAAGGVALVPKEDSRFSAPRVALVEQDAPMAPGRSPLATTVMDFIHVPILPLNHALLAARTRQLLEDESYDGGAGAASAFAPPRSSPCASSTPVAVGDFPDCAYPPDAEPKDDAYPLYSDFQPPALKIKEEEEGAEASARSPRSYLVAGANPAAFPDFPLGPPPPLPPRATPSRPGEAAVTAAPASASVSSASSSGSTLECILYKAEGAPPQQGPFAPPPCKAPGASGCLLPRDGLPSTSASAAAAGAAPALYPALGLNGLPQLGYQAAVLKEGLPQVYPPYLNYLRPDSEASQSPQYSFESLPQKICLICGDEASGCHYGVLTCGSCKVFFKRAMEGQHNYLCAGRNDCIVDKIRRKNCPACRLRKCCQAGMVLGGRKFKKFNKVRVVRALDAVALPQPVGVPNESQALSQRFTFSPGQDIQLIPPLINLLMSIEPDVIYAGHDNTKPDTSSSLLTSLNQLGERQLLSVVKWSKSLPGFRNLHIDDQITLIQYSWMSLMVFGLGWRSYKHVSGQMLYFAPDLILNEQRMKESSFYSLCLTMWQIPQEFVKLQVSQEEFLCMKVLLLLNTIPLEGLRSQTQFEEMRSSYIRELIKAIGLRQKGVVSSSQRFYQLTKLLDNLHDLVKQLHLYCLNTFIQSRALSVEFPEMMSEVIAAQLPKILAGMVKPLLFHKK
The experiment in a line: Assay for progesterone receptor activity (CV-1 cells, PRb-BacMam/MMTV-BacMam). The following applies: CV-1 cells transduced with PRb-BacMam and MMTV-BacMam; read-out: pEC50 progesterone receptor activity (converted). In short, it runs like this: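 CV-1 cells co-transduced with PRb-BacMam and MMTV-BacMam (10% each), seeded onto compounds in DMEM with 10% serum. After 24 h, luminescence was read with Steadylite. pEC50 values were estimated from dose-response curves.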

On to `Nc1c(C(=O)NCC(O)(CNC(=O)c2c(C(F)(F)F)cccc2C(F)(F)F)C(F)(F)F)cnn1-c1ccc(F)cc1` (racemic) [Example 15 (racemic), 5-amino-N-{2-[({[2,6-bis(trifluoromethyl)phenyl]carbonyl}amino)methyl]-3,3,3-trifluoro-2-hydroxypropyl}-1-(4-fluorophenyl)-1H-pyrazole-4-carboxamide], for which the Emax in the assay with NFκB is at least 20%; in the assay on MMTV promoter, 20 to 85%. Further, the IC50 in the assay with NFκB was under 1000 nM. The EC50 at progesterone receptor was over 1000 nM.
For `CN(CC(O)(CNC(=O)c1cnn(-c2ccc(F)cc2)c1N)C(F)(F)F)C(=O)c1c(Cl)cccc1Br` (racemic) [Example 16 (racemic), 5-amino-N-(2-{[[(2-bromo-6-chlorophenyl)carbonyl](methyl)amino]methyl}-3,3,3-trifluoro-2-hydroxypropyl)-1-(4-fluorophenyl)-1H-pyrazole-4-carboxamide], in the assay with NFκB, the Emax is over 85% and the IC50 is under 1000 nM. Moreover, the Emax in the assay on MMTV promoter was over 85%. For the same molecule, at progesterone receptor, the EC50 is over 1000 nM.
Turning to `Nc1c(C(=O)NCC(O)(CN(CCF)C(=O)c2c(F)cccc2F)C(F)(F)F)cnn1-c1ccc(F)cc1` (racemic) [Example 17 (racemic), 5-amino-N-(2-{[[(2,6-difluorophenyl)carbonyl](2-fluoroethyl)amino]methyl}-3,3,3-trifluoro-2-hydroxypropyl)-1-(4-fluorophenyl)-1H-pyrazole-4-carboxamide], in the assay on NFκB, the Emax was over 85% and the IC50 is under 1000 nM. Also, in the assay with MMTV promoter, the Emax is over 85%. The EC50 on progesterone receptor is over 1000 nM.
In the case of `Nc1c(C(=O)NCC(O)(CN(CCF)C(=O)c2c(F)cccc2C(F)(F)F)C(F)(F)F)cnn1-c1ccc(F)cc1` (racemic) [Example 18 (racemic), 5-amino-1-(4-fluorophenyl)-N-{3,3,3-trifluoro-2-[((2-fluoroethyl){[2-fluoro-6-(trifluoromethyl)phenyl]carbonyl}amino)methyl]-2-hydroxypropyl}-1H-pyrazole-4-carboxamide], in the assay with NFκB, the Emax was over 85% and the IC50 is under 1000 nM. In the assay with MMTV promoter, the Emax is over 85%. For the same molecule, on progesterone receptor, the EC50 was over 1000 nM.
As for `Nc1c(C(=O)NCC(O)(CNC(=O)c2c(F)cccc2C(F)(F)F)C(F)(F)F)cnn1-c1ccc(F)cc1` (racemic) [Example 19 (racemic), 5-amino-1-(4-fluorophenyl)-N-{3,3,3-trifluoro-2-[({[2-fluoro-6-(trifluoromethyl)phenyl]carbonyl}amino)methyl]-2-hydroxypropyl}-1H-pyrazole-4-carboxamide], the Emax in the assay with NFκB is at least 20%; in the assay on MMTV promoter, 20 to 85%. The IC50 in the assay on NFκB was under 1000 nM. The EC50 on progesterone receptor was over 1000 nM.
The matching figures for `CN(CC(O)(CNC(=O)c1cnn(-c2ccc(F)cc2)c1N)C(F)(F)F)C(=O)c1c(F)cccc1C(F)(F)F` (racemic) [Example 21 (racemic), 5-amino-1-(4-fluorophenyl)-N-(3,3,3-trifluoro-2-{[{[2-fluoro-6-(trifluoromethyl)phenyl]carbonyl}(methyl)amino]methyl}-2-hydroxypropyl)-1H-pyrazole-4-carboxamide]: over 85%, over 85%, under 1000 nM and over 1000 nM.
With `CN(CC(O)(CNC(=O)c1cnn(-c2ccc(F)cc2)c1N)C(F)(F)F)C(=O)c1c(C(F)(F)F)cccc1C(F)(F)F` (racemic) [Example 22 (racemic), 5-amino-N-(2-{[{[2,6-bis(trifluoromethyl)phenyl]carbonyl}(methyl)amino]methyl}-3,3,3-trifluoro-2-hydroxypropyl)-1-(4-fluorophenyl)-1H-pyrazole-4-carboxamide], in the assay on NFκB, the Emax is over 85% and the IC50 is under 1000 nM. Further, the Emax in the assay with MMTV promoter is over 85%. In addition, the EC50 on progesterone receptor was over 1000 nM.
Take `CCN(CC(O)(CNC(=O)c1cnn(-c2ccc(F)cc2)c1N)C(F)(F)F)C(=O)c1c(F)cccc1C(F)(F)F` (racemic) [Example 23 (racemic), 5-amino-N-{2-[(ethyl{[2-fluoro-6-(trifluoromethyl)phenyl]carbonyl}amino)methyl]-3,3,3-trifluoro-2-hydroxypropyl}-1-(4-fluorophenyl)-1H-pyrazole-4-carboxamide]: the Emax in the assay with NFκB and with MMTV promoter was over 85% in each case. The IC50 in the assay on NFκB was under 1000 nM. Also, at progesterone receptor, the EC50 is over 1000 nM.
As to `CCN(CC(O)(CNC(=O)c1cnn(-c2ccc(F)cc2)c1N)C(F)(F)F)C(=O)c1c(Cl)cccc1Br` (racemic) [Example 24 (racemic), 5-amino-N-(2-{[[(2-bromo-6-chlorophenyl)carbonyl](ethyl)amino]methyl}-3,3,3-trifluoro-2-hydroxypropyl)-1-(4-fluorophenyl)-1H-pyrazole-4-carboxamide], in the assay on NFκB, the Emax is over 85% and the IC50 is under 1000 nM. The Emax in the assay with MMTV promoter was over 85%. In addition, the EC50 at progesterone receptor was over 1000 nM.
For `CCN(CC(O)(CNC(=O)c1cnn(-c2ccc(F)cc2)c1N)C(F)(F)F)C(=O)c1c(Cl)cccc1OC(F)F` (racemic) [Example 25 (racemic), 5-amino-N-(2-{[({2-chloro-6-[(difluoromethyl)oxy]phenyl}carbonyl)(ethyl)amino]methyl}-3,3,3-trifluoro-2-hydroxypropyl)-1-(4-fluorophenyl)-1H-pyrazole-4-carboxamide], in the assay on NFκB, the Emax was over 85% and the IC50 was under 1000 nM. For the same molecule, the Emax with MMTV promoter is over 85%. At progesterone receptor, the EC50 was over 1000 nM.
`CCN(CC(O)(CNC(=O)c1cnn(-c2ccc(F)cc2)c1N)C(F)(F)F)C(=O)c1c(OC(F)F)cccc1OC(F)F` (racemic) [Example 26 (racemic), 5-amino-N-(2-{[({2,6-bis[(difluoromethyl)oxy]phenyl}carbonyl)(ethyl)amino]methyl}-3,3,3-trifluoro-2-hydroxypropyl)-1-(4-fluorophenyl)-1H-pyrazole-4-carboxamide]: in the assay with NFκB, the Emax was over 85% and the IC50 is under 1000 nM. Besides, the Emax with MMTV promoter is over 85%. The EC50 at progesterone receptor is over 1000 nM.
As to `CCN(CC(O)(CNC(=O)c1cnn(-c2ccc(F)cc2)c1N)C(F)(F)F)C(=O)c1c(C(F)(F)F)cccc1C(F)(F)F` (racemic) [Example 27 (racemic), 5-amino-N-(2-{[{[2,6-bis(trifluoromethyl)phenyl]carbonyl}(ethyl)amino]methyl}-3,3,3-trifluoro-2-hydroxypropyl)-1-(4-fluorophenyl)-1H-pyrazole-4-carboxamide], in the assay on NFκB, the Emax is over 85% and the IC50 was under 1000 nM. Also, the Emax in the assay on MMTV promoter is over 85%. Besides, the EC50 on progesterone receptor is over 1000 nM.

The values above are taken from US8247377B2, “Non-steroidal glucocorticoid inhibitors and their use in treating inflammation, allergy and auto-immune conditions” (Glaxo Group Limited, priority 2006, dated 2012).
